Experimental data from PubChem BioAssay AID1963967 (Molecular Pharmacology Branch, DTP, NCI, 2024).

Tested on: 855422-203-R-J1-PDC spheroids with HUVEC/MSC, viability
Assay: Anticancer human tumor 855422-203-R-J1-PDC patient-derived bladder carcinoma cell line growth inhibition [PI3K]
Settings: for IC50: curve of first compound; for viability, T/C: stronger effect = lower value; active = viability on the fitted dose curve at most 10% of control; inactive = the rest
Procedure, shortened: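 High-throughput combination screen: PI3K inhibitors crossed with targeted small molecules on complex spheroids of tumor cells, HUVEC and MSCs at 37 degrees C, 5% CO2. Top concentration was at or near clinical Cmax (otherwise 10 microM), with half-log decrements.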

[1] = second compound 0.0316 µM, first compound 0.0316 µM
[2] = second compound 0.0316 µM, first compound 0.1 µM
[3] = second compound 0.0316 µM, first compound 0.316 µM
[4] = second compound 0.0316 µM, first compound 1 µM
[5] = second compound 0.0316 µM, first compound 3.16 µM
[6] = second compound 0.0316 µM, first compound 10 µM
[7] = second compound 0.1 µM, first compound 0.0316 µM
[8] = second compound 0.1 µM, first compound 0.1 µM
[9] = second compound 0.1 µM, first compound 0.316 µM
[10] = second compound 0.1 µM, first compound 1 µM
[11] = second compound 0.1 µM, first compound 3.16 µM
[12] = second compound 0.1 µM, first compound 10 µM
[13] = second compound 0.316 µM, first compound 0.0316 µM
[14] = second compound 0.316 µM, first compound 0.1 µM
[15] = second compound 0.316 µM, first compound 0.316 µM
[16] = second compound 0.316 µM, first compound 1 µM
[17] = second compound 0.316 µM, first compound 3.16 µM
[18] = second compound 0.316 µM, first compound 10 µM
[19] = second compound 1 µM, first compound 0.0316 µM
[20] = second compound 1 µM, first compound 0.1 µM
[21] = second compound 1 µM, first compound 0.316 µM
[22] = second compound 1 µM, first compound 1 µM
[23] = second compound 1 µM, first compound 3.16 µM
[24] = second compound 1 µM, first compound 10 µM
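Also: agents incubated with spheroids for one week before read-out.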
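For viability, T/C in this document: 100% = DMSO vehicle-treated control wells.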

CC1(C)CCC(CN2CCN(c3ccc(C(=O)NS(=O)(=O)c4ccc(NCC5CCOCC5)c([N+](=O)[O-])c4)c(Oc4cnc5[nH]ccc5c4)c3)CC2)=C(c2ccc(Cl)cc2)C1 + Cc1nc(NC(=O)N2CCCC2C(N)=O)sc1-c1ccnc(C(C)(C)C(F)(F)F)c1
4.57 µM: IC50 (second compound 0.0316 µM)
active: viability, T/C [6] 1.55% | viability, T/C [12] 1.52% | viability, T/C [18] 1.39% | viability, T/C [24] 0.91% | viability, T/C (second compound 3.16 µM, first compound 10 µM) 0.59%
5.26 µM: IC50 (second compound 0.316 µM)
inactive: viability, T/C [1] 105% | viability, T/C [2] 89.9% | viability, T/C [3] 112% | viability, T/C [4] 100% | viability, T/C [5] 72.8% | viability, T/C [7] 99.8% | viability, T/C [8] 87.4% | viability, T/C [9] 101% | viability, T/C [10] 102% | viability, T/C [11] 80.6% | viability, T/C [13] 89.8% | viability, T/C [14] 91.8% | viability, T/C [15] 95.3% | viability, T/C [16] 92.1% | viability, T/C [17] 88.6% | viability, T/C [19] 76.8% | viability, T/C [20] 77% | viability, T/C [21] 69.5% | viability, T/C [22] 81% | viability, T/C [23] 73.3% | viability, T/C (second compound 3.16 µM, first compound 0.0316 µM) 47.7% | viability, T/C (second compound 3.16 µM, first compound 0.1 µM) 45.5% | viability, T/C (second compound 3.16 µM, first compound 0.316 µM) 42.7% | viability, T/C (second compound 3.16 µM, first compound 1 µM) 49% | viability, T/C (second compound 3.16 µM, first compound 3.16 µM) 47% | viability, T/C (second compound 10 µM, first compound 0.0316 µM) 25.8% | viability, T/C (second compound 10 µM, first compound 0.1 µM) 23.5% | viability, T/C (second compound 10 µM, first compound 0.316 µM) 25.7% | viability, T/C (second compound 10 µM, first compound 1 µM) 29.4% | viability, T/C (second compound 10 µM, first compound 3.16 µM) 24.7% | viability, T/C (second compound 10 µM, first compound 10 µM) 0.6%
4.94 µM: IC50 (second compound 0.1 µM)
< 0.0316 µM: IC50 (second compound 3.16 µM) | IC50 (second compound 10 µM)
4.58 µM: IC50 (second compound 1 µM)

CNC(=O)c1ccc(N2C(=S)N(c3ccc(C#N)c(C(F)(F)F)c3)C(=O)C2(C)C)cc1F + CC(Nc1ccc2c(c1)OCCn1cc(N3C(=O)OCC3C(F)F)nc1-2)C(N)=O
0.265 µM: IC50 (second compound 0.316 µM)
inactive: viability, T/C (second compound 0.00316 µM, first compound 0.0316 µM) 106% | viability, T/C (second compound 0.00316 µM, first compound 0.1 µM) 83.8% | viability, T/C (second compound 0.00316 µM, first compound 0.316 µM) 95.8% | viability, T/C (second compound 0.00316 µM, first compound 1 µM) 81.2% | viability, T/C (second compound 0.00316 µM, first compound 3.16 µM) 72.9% | viability, T/C (second compound 0.00316 µM, first compound 10 µM) 65.4% | viability, T/C (second compound 0.01 µM, first compound 0.0316 µM) 102% | viability, T/C (second compound 0.01 µM, first compound 0.1 µM) 91.2% | viability, T/C (second compound 0.01 µM, first compound 0.316 µM) 90% | viability, T/C (second compound 0.01 µM, first compound 1 µM) 77.3% | viability, T/C (second compound 0.01 µM, first compound 3.16 µM) 79% | viability, T/C (second compound 0.01 µM, first compound 10 µM) 72.5% | viability, T/C [1] 86.6% | viability, T/C [2] 82.1% | viability, T/C [3] 79.9% | viability, T/C [4] 66.6% | viability, T/C [5] 72.8% | viability, T/C [6] 64.3% | viability, T/C [7] 76.9% | viability, T/C [8] 76.7% | viability, T/C [9] 83.3% | viability, T/C [10] 63.1% | viability, T/C [11] 62% | viability, T/C [12] 52.8% | viability, T/C [13] 51.4% | viability, T/C [14] 46.9% | viability, T/C [15] 53.6% | viability, T/C [16] 49.1% | viability, T/C [17] 52.7% | viability, T/C [18] 43.1% | viability, T/C [19] 37.2% | viability, T/C [20] 36.4% | viability, T/C [21] 37% | viability, T/C [22] 41.3% | viability, T/C [23] 38.5% | viability, T/C [24] 33.8%
> 10 µM: IC50 (second compound 0.00316 µM) | IC50 (second compound 0.01 µM) | IC50 (second compound 0.0316 µM) | IC50 (second compound 0.1 µM)
< 0.0316 µM: IC50 (second compound 1 µM)
